Results from US20130251782A1, “TOPICAL APPLICATION OF INGENOL MEBUTATE WITH OCCLUSION” (LEO LABORATORIES LIMITED, priority 2012, published 2013).
Like-named read-outs stand apart in the source and are kept apart here.

Tests used:
[1] = tested on: sBCC lesion on the trunk or extremities; assay type: in vivo
From the text: The primary objective of the clinical trial was to evaluate the safety of PEP005 Gel, 0.05% when administered for up to 3 consecutive days application (Day 1, 2 and 3), to a sBCC lesion on the trunk and extremities.
Another objective of the clinical trial was to evaluate the efficacy of PEP005 Gel, 0.05% when administered for up to 3 consecutive days application (Day 1, 2 and 3), to a sBCC lesion on the trunk and extremities.
This was a phase 2, multi-centre, parallel group, open-label trial to evaluate the safety and efficacy of PEP005 (ingenol mebutate) Gel, 0.05%, when administered for up to 3 consecutive days (Day 1, 2 and 3) to a sBCC lesion on the trunk or extremities.
The trial population was planned to include 75 subjects aged at least 18 years with a primary diagnosed and histologically confirmed sBCC located on the trunk or extremities which was suitable for excision.
Eligible subjects were randomised to receive physician-applied trial medication in one of the following 3 treatment groups:
Group 1) PEP005 Gel, 0.05%, up to 3 consecutive days treatment, occluded with an aluminium disk;
Group 2) PEP005 Gel, 0.05%, up to 3 consecutive days treatment, occluded with an Opsite™ disk;
Group 3) PEP005 Gel, 0.05%, up to 3 consecutive days treatment, not occluded.
Eligible subjects received PEP005 Gel on Days 1, 2 and 3. […] If tolerability to trial medication was maintained, the subjects received all 3 doses of PEP005 Gel, 0.05%, regardless of whether the sBCC lesion being treated was resolved or not.
Subsequent follow-up visits for safety assessments were made on Days 2, 3 (as applicable), 4 (as applicable), 8, 15, 29, 57, 85 and 120. Histological and clinical efficacy assessments were only conducted at Day 120. If trial medication was not administered on Day 2 a follow-up visit on Day 3 or 4 was not necessary, unless clinically indicated. If trial medication was not administered on Day 3 a follow-up visit on Day 4 was not necessary, unless clinically indicated.
The volume of PEP005 Gel applied to the selected treatment area was 30 μl for lesions with the longest axes of between 4-10 mm and 50 μl for lesions with the longest axes of between 11-15 mm.
The actual treatment analysis set included the same subjects as in the full analysis set, i.e. 75 randomised subjects. However, 2 subjects who received the wrong treatment were assigned to their actual treatment group, i.e. PEP005 Aluminium Disk.
Thus, in the actual treatment analysis set 27 subjects were included in PEP005 Aluminium Disk group and 24 subjects both in PEP005 Opsite™ Disk group and PEP005 No Occlusion group.

[2] = In vitro skin permeation and penetration of PEP005, flow through diffusion cells; assay type: in vitro ADME, pig
From the text: The in vitro skin permeation and penetration of PEP005 was investigated with various types of occlusion dressings, using flow through diffusion cells. Dressings were applied immediately (without formulation drying), as well as after the formulation had dried. Additionally, PEP005 might also be absorbed into the occlusion dressing, which also was investigated.
Methods: The in vitro permeation and penetration of PEP005 into pig ear skin was studied using PermeGear® flow through diffusion cells (n=6 per formulation). The skin diffusion experiment was allowed to proceed for 21 hours into a recipient phase consisting of 0.04 M isotonic phosphate buffer pH 7.4. Samples from the different skin layers and recipient phase were collected in order to determine flux and skin distribution of PEP005. The samples were analysed by LC-MS/MS.
The test formulation used is an aqueous based gel formulation containing; PEP005 0.5 mg/g, Benzyl Alcohol 9 mg/g, Isopropanol 300 mg/g, Citric acid 5.4 mg/g, Sodium Citrate dihydrate 1.4 mg/g, Hydroxyethyl Cellulose 15 mg/g and water up to 1 g, with a formulation pH of 3.2.
Full thickness skin from pig ears was used in the study. The ears were kept frozen at −18° C. until use. Before the experiment, the ears were placed in a refrigerator (2-8° C.) for slow defrosting. The hairs were removed using a veterinary hair trimmer. The skin was cleaned for subdermal fat using a scalpel, and two pieces of skin were cut from each ear. The pieces of skin were refrozen and kept for no longer than 4 weeks. […]
The used PermeGear® automated system incorporate nine flow through diffusion cells (1-9) made of clear glass, in which the donor and receptor chambers were separated by a diffusion membrane and held together by a pinch clamp. […] The specific volume was measured and registered for each cell. […]
Prior to application of the formulation, the experiment was started by starting the pump. […] The formulation was applied using a glass spatula and the residual amount of formulation was determined, thus giving the actual amount of formulation applied to the skin. […]

[3] = cited from earlier work

SMILES: C/C=C(/C)C(=O)O[C@H]1C(C)=C[C@]23C(=O)[C@@H](C=C(CO)[C@@H](O)[C@]12O)[C@H]1[C@@H](C[C@H]3C)C1(C)C [PEP005, 2-methyl-2(Z)-butenoic acid (1aR,2S,5R,5aS,6S,8aS,9R,10aR)-5,5a-dihydroxy-4-(hydroxymethyl)-1,1,7,9-tetramethyl-11-oxo-1a,2,5,5a,6,9,10,10a-octahydro-1H-2,8a-methanocyclopenta[a]cyclopropa[e]cyclodecen-6-yl ester]
- Number of subjects who received 1 dose (dosing continued only if tolerated) ([1]; Aluminium Disk group (n = 27)): 22
- Number of subjects who received 2 doses (dosing continued only if tolerated) ([1]; Aluminium Disk group (n = 27)): 2
- Number of subjects who received 3 doses (dosing continued only if tolerated) ([1]; Aluminium Disk group (n = 27)): 13
- Subjects who received 1 dose (dosing continued only if tolerated) ([1]; Aluminium Disk group (n = 27)): 81.5%
- Subjects who received 2 doses (dosing continued only if tolerated) ([1]; Aluminium Disk group (n = 27)): 7.4%
- Subjects who received 3 doses (dosing continued only if tolerated) ([1]; Aluminium Disk group (n = 27)): 11.1%
- Number of subjects who received 1 dose (dosing continued only if tolerated) ([1]; No Occlusion group (n = 24)): 0
- Number of subjects who received 2 doses (dosing continued only if tolerated) ([1]; No Occlusion group (n = 24)): 1
- Number of subjects who received 3 doses (dosing continued only if tolerated) ([1]; No Occlusion group (n = 24)): 23
- Subjects who received 1 dose (dosing continued only if tolerated) ([1]; No Occlusion group (n = 24)): 0.0%
- Subjects who received 2 doses (dosing continued only if tolerated) ([1]; No Occlusion group (n = 24)): 4.2%
- Subjects who received 3 doses (dosing continued only if tolerated) ([1]; No Occlusion group (n = 24)): 95.8%
- Number of subjects who received 1 dose (dosing continued only if tolerated) ([1]; OpSite Disk group (n = 24)): 0
- Number of subjects who received 2 doses (dosing continued only if tolerated) ([1]; OpSite Disk group (n = 24)): 5
- Number of subjects who received 3 doses (dosing continued only if tolerated) ([1]; OpSite Disk group (n = 24)): 19
- Subjects who received 1 dose (dosing continued only if tolerated) ([1]; OpSite Disk group (n = 24)): 0.0%
- Subjects who received 2 doses (dosing continued only if tolerated) ([1]; OpSite Disk group (n = 24)): 20.8%
- Subjects who received 3 doses (dosing continued only if tolerated) ([1]; OpSite Disk group (n = 24)): 79.2%
- Increase in penetrated amount of PEP005 after occlusion compared to the non-occluded treatment ([2]; Study PMPN1028, all dressings): 2-6 fold
- Increase in permeation of PEP005 compared to the non-occluded treatment ([2]; aluminium foil, parafilm, Coloplast vinyl film and Compeed, Study PMPN1028): 9-10 fold
- Increase in skin permeation compared to the non-occluded treatment ([2]; semi-occlusive dressing Flexifix, Study PMPN1028): 3 fold
- Stability in alcohols ([3]; alcohols such as benzyl alcohol and isopropyl alcohol): good stability
- Stability at low pH ([3]; low pH): good stability
